# Results taken from patent US20250114371A1, “BIOMARKER AND PATIENT SELECTION IN TREATMENT FOR MYELOFIBROSIS” (GlaxoSmithKline LLC, priority 2021, published 2025).
# Where two headings read alike, the source gives them in different places.
# Assays:
# [1] = tested on: transfusion-dependent myelofibrosis patients; conditions: Oh et al. 2020, cited from earlier work
# [2] = tested on: patients with myelofibrosis naïve to treatment with a JAK inhibitor; test: SIMPLIFY-1 Phase 3 trial, MMB versus RUX, 24 weeks randomized treatment; type: in vivo, human; conditions: for Response Ratio (MMB/Control): TI response at week 24, MMB/RUX; for 3-year survival: patients randomized to MMB; for Week 24 TI response rate: patients with baseline anemia; for mean ferritin change at W24 from baseline: serum ferritin, irrespective of baseline ferritin
# Description: In the SIMPLIFY-1 trial (NCT01969838; GS-US-352-0101), the efficacy and safety of MMB versus ruxolitinib (RUX) was studied in patients with myelofibrosis who were naïve to treatment with a JAK inhibitor. Patients (N=432) with high risk or intermediate-2 risk or symptomatic intermediate-1 risk myelofibrosis received 24 weeks of treatment with 200 mg MMB once daily or 20 mg RUX twice a day (or per label), after which all patients could receive open-label momelotinib. […] The primary endpoint was a reduction by at least 35% in the spleen volume at 24 weeks compared with baseline.
# (§1) The relationship between W24 response and overall survival (OS) was explored in patients randomized to MMB in the SIMPLFY-1 (S1) and SIMPLIFY-2 (S2) trials.
# (§2) Responders were defined as follows: • W24 TI response (TI-R): no RBC transfusion within ?12 weeks immediately prior to W24, with Hgb≥8 g/dL • W24 spleen response: ≥35% spleen volume reduction vs baseline (BL) • W24 symptom response: ≥50% reduction in MFSAF total symptom score vs BL
# (§3) Survival from baseline was estimated using K-M analysis with descriptive log-rank tests for comparison applied (all p values are descriptive). Hazard ratios were computed using proportional hazard regression. To adjust for the time to response bias, overall survival from W24 was also compared. As patients randomized to the control arm in both studies and crossed over to open label MMB after 24 weeks of randomized treatment, a valid comparison of overall survival with patients randomized to RUX or BAT/RUX vs MMB was not possible, therefore, only the MMB arm was analyzed.
# (§4) Based on the findings from the Phase 2 translational biology study we retrospectively analyzed the relationship between serum ferritin, hepcidin and C-reactive protein (CRP) and the W24 TI response rates for patients randomized to MMB and RUX in the S1 study using univariate analyses and multiple logistic regression models. These findings were then independently confirmed in the previously RUX treated patients in S2.
# [3] = tested on: patients with myelofibrosis naïve to treatment with a JAK inhibitor; conditions: Mesa et al., cited from earlier work
# [4] = tested on: anemic or thrombocytopenic subjects with myelofibrosis previously treated with ruxolitinib; conditions: Harrison et al., cited from earlier work
# [5] = tested on: myelofibrosis patients with low platelet counts; test: Re-analysis of the data from the SIMPLIFY-1 and SIMPLIFY-2 trials by platelet count; type: in vivo, human; conditions: patients whose platelet counts are 150×109 per liter or below
# [6] = tested on: anemic or thrombocytopenic subjects with myelofibrosis previously treated with ruxolitinib; test: SIMPLIFY-2 Phase 3 trial, MMB versus best available therapy (BAT); type: in vivo, human; conditions: for Response Ratio (MMB/Control): TI response at week 24, MMB/BAT
# Description: In the SIMPLIFY-2 trial (NCT02101268; GS-US-352-1214), the efficacy and safety of MMB versus best available treatment (BAT) was studied in anemic or thrombocytopenic subjects with myelofibrosis who were previously treated with ruxolitinib (RUX). There was no lower limit for the required baseline platelet count. […] The primary endpoint was a reduction by at least 35% in the spleen volume at 24 weeks compared with baseline.
# as §1, §2, §3, §4
structure (smiles),measurement,setting,value
"Cl.N#CCNC(=O)c1ccc(-c2ccnc(Nc3ccc(N4CCOCC4)cc3)n2)cc1 [MMB, N-(cyanomethyl)-4-(2-(4-morpholinophenylamino)pyrimidin-4-yl)benzamide]",hepcidin,[1],acutely and chronically suppresses elevated levels of hepcidin
same,hepcidin,[1]; listed as momelotinib,inhibited
same,transfusion dependency,[1]; transfusion-dependent myelofibrosis patients,reversed or reduced
same,overall survival hazard ratio (HR),[2]; MMB W24 spleen responders vs nonresponders,0.59
same,overall survival hazard ratio (HR),[2]; MMB W24 symptom (TSS) responders vs nonresponders,0.66
same,overall survival hazard ratio (HR),"[2]; MMB patients with anemia at baseline, W24 TI-R vs nonresponders",0.32
same,W24 TI-R rate,"[2]; MMB vs RUX, irrespective of baseline anemia, platelet count or transfusion status (FIGS. 1-3)",higher in patients randomized to MMB vs RUX
same,Response Ratio (MMB/Control),[2]; baseline ferritin <90 ng/mL,1.0843
same,Response Ratio (MMB/Control),[2]; baseline ferritin ≥90 ng/mL,1.7538
same,overall survival hazard ratio (HR),"[2]; all patients randomized to MMB, W24 TI responders vs TI nonresponders",0.30
same,stabilizing ferritin over time,[2]; compared to RUX (FIGS. 12 and 13),more effective at stabilizing ferritin over time when compared to RUX
same,W24 TI-R by baseline ferritin cohort,[2]; each ferritin cohort (FIG. 14),superior to RUX for each ferritin cohort
same,W24 TI-R by baseline ferritin cohort,[2]; ferritin levels exceed 650 ng/mL (FIG. 14),nominally better than RUX
same,3-year survival,[2]; TI nonresponders at W24,50%
same,3-year survival,[2]; TI responders at W24,80%
same,Week 24 TI response rate,[2],45%
same,mean ferritin change at W24 from baseline,[2],+13.8 ng/mL
same,transfusion dependence rate,[3]; compared to RUX,decreased
same,transfusion independence rate,[3]; compared to RUX,increased
same,transfusion rate,[3]; compared to RUX,reduced
same,reduction of spleen size (primary endpoint),"[3]; vs RUX, JAKi-naïve patients, 24 weeks",noninferior to RUX
same,total symptom score (TSS) response (secondary endpoint),[3]; vs RUX,non-inferiority was not demonstrated
same,total symptom score (TSS) response,[4]; compared to BAT group,greater
same,transfusion dependence,[4]; compared to BAT group,lower
same,transfusion independence,[4]; compared to BAT group,higher
same,transfusions,[4]; compared to BAT group,fewer
same,reduction of spleen size (primary endpoint),[4]; vs BAT,not superior to BAT
same,"reducing spleen size (SSR), improving total symptom scores (TSS), improving transfusion independence rates",[5],effective
same,thrombocytopenia,[5],without momelotinib administration causing thrombocytopenia
same,overall survival hazard ratio (HR),[6]; MMB symptom (TSS) responders vs TSS nonresponders,0.67
same,Response Ratio (MMB/Control),[6]; baseline ferritin <90 ng/mL,1.1429
same,Response Ratio (MMB/Control),[6]; baseline ferritin ≥90 ng/mL,3.7949
same,overall survival hazard ratio (HR),"[6]; all patients randomized to MMB, W24 TI responders vs TI non-responders",0.57
"N#CC[C@H](C1CCCC1)n1cc(-c2ncnc3[nH]ccc23)cn1 [RUX, Ruxolitinib, reference compound]",Week 24 TI response rate,[2],26%
same,mean ferritin change at W24 from baseline,[2],+226.1 ng/mL
